Results taken from patent US7893067B2, “Cysteine protease inhibitors” (Medivir AB, priority 2007, dated 2011).

Columns and labels:
[1] = Metabolic stability in human hepatic cytosol assay; assay type: in vitro ADME; details: 2 μM in pooled human liver cytosol, 1 mg/mL protein, pH 7.4, 37°, 1 mM NADPH
Experimental: Compounds of the invention and the indicated comparative examples were tested for metabolic stability in a cytosol assay in which the compounds were incubated with commercially available human hepatic cytosol fractions and the disappearance of the compound monitored by HPLC or LC/MS. Pooled human liver cytosol fractions are less likely to represent outlier individuals than blood from a single individual and can be stored frozen, unlike whole blood. The cytosol assay thus provides a consistent assay testbed as a guide to the stability of a compound in the in vivo environment, such as when exposed to whole blood.
In short, test compounds (2 μM) are incubated in pooled human liver cytosol (Xenotech LLC Lenexa US, 1 mg/mL protein in 0.1M phosphate buffer, pH 7.4) at 37° centigrade over a one hour period. The incubations are initiated by the addition of 1 mM NADPH co-factor. Timed sub-samples were taken at 0, 20, 40 and 60 minutes and “crash precipitated” by the addition of 3 volumes of ice-cold acetonitrile. The samples were centrifuged at reduced temperature and the supernatants were separated and analyzed by LC-MS-MS.

[2] = Caco-2 permeability (Papp); assay type: in vitro ADME; details: human; Caco-2 assay, standard concentration 10 μM
Experimental: The transport plate comprises 3 rows of 4 wells.
Determination of the cumulative fraction absorbed, FAcum, versus time. FAcum is calculated from: […]
A linear relationship should be obtained.

[3] = molecular target: T1, human recombinant cathepsin K (Homo sapiens, UniProt P43235); test: Determination of cathepsin K proteolytic catalytic activity (Ki); assay type: biochemical
T1 construct: made in house; host or cells: not fixed: E coli, Pichia or Baculovirus systems named as options
T1 sequence (P43235 115-329): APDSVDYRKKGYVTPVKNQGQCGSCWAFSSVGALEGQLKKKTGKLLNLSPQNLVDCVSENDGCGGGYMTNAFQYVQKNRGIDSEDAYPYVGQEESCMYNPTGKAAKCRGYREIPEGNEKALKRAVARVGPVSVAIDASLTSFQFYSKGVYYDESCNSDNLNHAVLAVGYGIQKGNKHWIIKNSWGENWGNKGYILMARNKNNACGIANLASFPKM
Experimental: Convenient assays for cathepsin K are carried out using human recombinant enzyme, such as that described in PDB.
The recombinant cathepsin K can be expressed in a variety of commercially available expression systems including E coli, Pichia and Baculovirus systems. The purified enzyme is activated by removal of the prosequence by conventional methods.
Standard assay conditions for the determination of kinetic constants used a fluorogenic peptide substrate, typically H-D-Ala-Leu-Lys-AMC, and were determined in either 100 mM Mes/Tris, pH 7.0 containing 1 mM EDTA and 10 mM 2-mercaptoethanol or 100 mM Na phosphate, imM EDTA, 0.1% PEG4000 pH 6.5 or 100 mM Na acetate, pH 5.5 containing 5 mM EDTA and 20 mM cysteine, in each case optionally with […] as stabiliser. The enzyme concentration used was 5 nM. The stock substrate solution was prepared at 10 mM in DMSO. Screens were carried out at a fixed substrate concentration of 60 μM and detailed kinetic studies with doubling dilutions of substrate from 250 μM. The total DMSO concentration in the assay was kept below 3%. All assays were conducted at ambient temperature. Product fluorescence (excitation at 390 nm, emission at 460 nm) was monitored with a Labsystems Fluoroskan Ascent fluorescent plate reader. Product progress curves were generated over 15 minutes following generation of AMC product.
(§1) Potential inhibitors are screened using the above assay with variable concentrations of test compound. Reactions were initiated by addition of enzyme to buffered solutions of substrate and inhibitor. Ki values were calculated according to equation 1
(§2) [formula] where v0 is the velocity of the reaction, V is the maximal velocity, S is the concentration of substrate with Michaelis constant of KM, and/is the concentration of inhibitor.

human cathepsin L = human cathepsin L (Homo sapiens, UniProt P07711); test: Cathepsin L Ki; assay type: biochemical
Experimental: The procedure above with the following amendments is used for the determination of Ki for cathepsin L.
The enzyme is commercially available human cathepsin L (for example Calbiochem). The substrate is H-D-Val-Leu-Lys-AMC available from Bahcem. The assay buffer is 100 mM sodium acetate 1 mM EDTA, pH5.5) The DMSO stock (10 mM in 100% DMSO) is diluted to 10% in assay buffer. Enzyme is prepared at 5 nM concentration in assay buffer plus 1 mM dithiothreitol just before use. 2 ul of 10 mM inhibitor made up in 100% DMSO is dispensed into row A. 10 ul of 50 uM substrate (=1/200 dilution of 10 mM stock in DMSO, diluted in assay buffer)
as §1, §2

[4] = molecular target: T2, baculovirus-expressed human cathepsin S (Homo sapiens, UniProt P25774); test: Cathepsin S Ki determination; assay type: biochemical
T2 construct: made in house
Experimental: 280 μl/well of 12.5% DMSO are added to rows B-H of two columns of a 96 deep well polypropylene plate. 70 μl/well of substrate is added to row A. 2×250 μl/well of assay buffer (100 mM Na phosphate, 100 mM NaCl, pH 6.5) is added to row A, mixed, and double diluted down the plate to row H. 100 μl/well of assay buffer is added to columns 2-5 and 7-12 of 4 rows of a 96 well V bottom polypropylene plate. 200 μl/well of assay buffer is added to columns 1 and 6. […] Add 90 μl assay buffer containing 1 mM DTT and 2 nM cathepsin S to each well of rows B-H and 180 μl to row A. Mix row A using a multichannel pipette and double dilute to row G. Mix row H and read in the fluorescent spectrophotometer. […] The second test compound is added to column 6 of the top row, the third to column 1 of the second row etc. Add 1 μl of comparator to column 6 of the bottom row. Mix column 1 and double dilute to column 5. Mix column 6 and double dilute to column 10. Using an 8-channel multistepping pipette set to 5×10 μl, distribute 10 μl/well of substrate to the 384 well assay plate. Distribute the first column of the substrate dilution plate to all columns of the assay plate starting at row A. The tip spacing of the multichannel pipette will correctly skip alternate rows. Distribute the second column to all columns starting at row B. Using a 12-channel multistepping pipette set to 4×10 μl, distribute 10 μl/well of inhibitor to the 384 well assay plate. Distribute the first row of the inhibitor dilution plate to alternate rows of the assay plate starting at A1. The tip spacing of the multichannel pipette will correctly skip alternate columns. Similarly, distribute the second, third and fourth rows to alternate rows and columns starting at A2, B1 and B2 respectively. Mix 20 ml assay buffer and 20 μl 1M DTT. Add sufficient cathepsin S to give 2 nM final concentration. Using the a distributor such as a Multidrop 384, add 30 μl/well to all wells of the assay plate and read in fluorescent spectrophotomoter such as an Ascent. Fluorescent readings, (excitation and emission wavelengths 390 nm and 460 nm respectively, set using bandpass filters) reflecting the extent of enzyme cleavage of the fluorescent substrate, notwithstanding the inhibitor, are linear rate fitted for each well. Fitted rates for all wells for each inhibitor are fitted to the competitive inhibition equation using SigmaPlot 2000 to determine V, Km and Ki values. Potential inhibitors are screened using the above assay with variable concentrations of test compound. Reactions were initiated by addition of enzyme to buffered solutions of substrate and inhibitor. Ki values were calculated according to equation 1 [formula] where v0 is the velocity of the reaction, V is the maximal velocity, S is the concentration of substrate with Michaelis constant of KM, and/is the concentration of inhibitor.

[5] = representative values from specific batches of compound/enzyme/assay occasion

T2 sequence (P25774 115-331): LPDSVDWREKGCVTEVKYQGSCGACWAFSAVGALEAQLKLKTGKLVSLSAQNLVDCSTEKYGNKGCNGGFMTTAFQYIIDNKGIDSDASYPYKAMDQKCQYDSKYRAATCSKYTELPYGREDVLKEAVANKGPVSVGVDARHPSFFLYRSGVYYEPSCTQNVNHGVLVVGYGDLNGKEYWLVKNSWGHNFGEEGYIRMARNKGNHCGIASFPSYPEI
Chain of human cathepsin L (P07711 114-333): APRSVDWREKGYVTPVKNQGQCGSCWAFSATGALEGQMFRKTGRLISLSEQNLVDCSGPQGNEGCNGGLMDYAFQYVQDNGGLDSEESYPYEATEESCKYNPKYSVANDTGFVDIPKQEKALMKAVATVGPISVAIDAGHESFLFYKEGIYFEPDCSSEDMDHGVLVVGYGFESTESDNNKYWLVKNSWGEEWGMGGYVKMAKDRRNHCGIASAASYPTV

`CC(C)C[C@H](NC(=O)c1ccc(-c2nc(N3CCN(C)CC3)sc2F)cc1)C(=O)N1C[C@@H](Cl)[C@H]2OCC(=O)[C@H]21` [Example 12, N-[1-(6-Chloro-3-oxo-hexahydro-furo[3,2-b]pyrrole-4-carbonyl)-3-methyl-butyl]-4-[5-fluoro-2-(4-methyl-piperazin-1-yl)-thiazol-4-yl]-benzamide] gave a half-life at 2 μM [1] of 4.5 h, a Papp at 120 min, 10 μM [2] of 10 ×10⁻⁶ cm/s and a Ki ([3]; Table 1, class symbols) of under 0.05 µM. The Ki [3, 5] was 0.0018 µM, the Ki (human cathepsin L; Table 1, class symbols) was 1 to 5 µM and the Ki (human cathepsin L; [5]) was 1.6 µM. It also gave a Ki ([4]; Table 1, class symbols) of over 10 µM and a Ki [4, 5] of 11 µM.
